Patent US20080214606A1, “Methods for the Identification and Use of Compounds Suitable for the Treatment of Drug Resistant Cancer Cells” (The Government of the United States of America as …, priority 2004, published 2008)

Each compound was assayed against ABCB1 (Homo sapiens, UniProt P08183) (assay: Correlation of ABCB1 expression with drug sensitivity across the NCI-60).
ABCB1, sequence (P08183 whole entry): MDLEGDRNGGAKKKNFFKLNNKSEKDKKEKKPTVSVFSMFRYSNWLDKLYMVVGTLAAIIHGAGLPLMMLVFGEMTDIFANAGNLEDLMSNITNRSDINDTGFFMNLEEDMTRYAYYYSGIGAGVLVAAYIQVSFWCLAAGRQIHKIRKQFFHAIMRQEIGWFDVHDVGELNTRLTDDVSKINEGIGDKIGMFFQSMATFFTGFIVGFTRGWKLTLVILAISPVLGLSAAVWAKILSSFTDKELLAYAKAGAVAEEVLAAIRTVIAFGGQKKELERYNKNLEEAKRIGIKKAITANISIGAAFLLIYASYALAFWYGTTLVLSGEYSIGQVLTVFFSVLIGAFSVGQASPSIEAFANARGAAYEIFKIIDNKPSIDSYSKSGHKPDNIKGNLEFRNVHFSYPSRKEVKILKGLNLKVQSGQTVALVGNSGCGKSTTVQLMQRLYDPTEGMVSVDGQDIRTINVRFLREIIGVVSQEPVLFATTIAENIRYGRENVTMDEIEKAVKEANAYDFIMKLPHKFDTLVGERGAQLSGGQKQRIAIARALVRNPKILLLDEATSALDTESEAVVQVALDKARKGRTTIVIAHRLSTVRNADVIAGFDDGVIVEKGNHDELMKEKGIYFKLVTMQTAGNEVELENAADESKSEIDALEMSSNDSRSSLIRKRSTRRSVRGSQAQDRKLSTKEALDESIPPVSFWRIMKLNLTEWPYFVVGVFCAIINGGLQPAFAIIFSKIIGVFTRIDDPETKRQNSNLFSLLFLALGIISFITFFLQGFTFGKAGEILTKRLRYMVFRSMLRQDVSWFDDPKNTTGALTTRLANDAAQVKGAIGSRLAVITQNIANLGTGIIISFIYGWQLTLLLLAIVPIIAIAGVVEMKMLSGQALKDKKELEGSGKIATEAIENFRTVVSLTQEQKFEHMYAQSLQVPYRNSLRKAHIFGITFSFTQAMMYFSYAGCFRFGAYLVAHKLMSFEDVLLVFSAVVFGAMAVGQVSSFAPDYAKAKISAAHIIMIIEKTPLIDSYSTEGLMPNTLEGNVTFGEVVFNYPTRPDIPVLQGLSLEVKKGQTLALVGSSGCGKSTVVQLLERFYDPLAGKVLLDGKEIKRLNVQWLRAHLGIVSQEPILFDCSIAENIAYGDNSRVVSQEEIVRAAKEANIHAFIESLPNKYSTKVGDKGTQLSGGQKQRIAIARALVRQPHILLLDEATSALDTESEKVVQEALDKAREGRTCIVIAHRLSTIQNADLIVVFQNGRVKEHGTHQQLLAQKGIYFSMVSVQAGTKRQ
Protocol: Expression levels are measured by real-time quantitative RT-PCR using the LightCycler RNA Amplification SYBR Green kit and a LightCycler machine (Roche Biochemicals, Indianapolis, Ind.). Specific oligonucleotide probes are designed for each of the ABC transporters using DNAStar Primer Select (DNASTAR Inc.), and they may be synthesized at Lofstrand Laboratories (Gaithersburg, Md.). When possible, the amplicons are designed to encompass exon-intron boundaries to avoid amplification of genomic DNA. Since the Syber Green assay detects accumulation of double stranded DNA, primers are selected (from a battery consisting of about 200 primers) that amplified a single product of the correct size.
RT-PCR is carried out on 150 ng total RNA, in the presence of 250 nM specific primers. Following reverse transcription (20 min at 50° C.), the PCR reaction consists of 45 cycles of denaturation (15 sec at 95° C.), annealing (30 sec at 58° C.), and elongation (30 sec at 72° C.). No-template (water) reaction mixtures are prepared as negative controls.
During PCR amplification, fluorescence emission is measured and recorded in real time by the LightCycler. Crossing point values are calculated, using the LightCycler software package, by the Fit Points analysis method, with baseline fluorescence set at 1. The SyberGreen assay measures accumulation of double-stranded products, and the appearance of primer dimers limits quantitation at high cycle numbers. […] The raw results are expressed as number of cycles to reach the crossing point. If the desired product is not detected, the corresponding value is adjusted to crossing points indicating no expression. To assess the contribution of experimental artifacts, selected cell lines are assessed in replicate.
Both sets are available at http://discover.nci.nih.gov. The two are combined to form a joint dataset that includes 1429 compounds.
To determine quantitatively how well the 47 genes cluster the cell lines by their tissues of origin, a statistical method is employed wherein the kappa statistic is used to indicate how well the observed clusters correspond to the nine tissue-of-origin classifications. […] To control the overall false type 1 error rate, both a step-down procedure (Westfall and Young, 1993, Resampling-Based Multiple Testing: Examples and Methods for p-value Adjustment (New York: Wiley)) and a step-up procedure (Reiner et al., 2003, Bioinformatics 19:368-375) were employed to adjust for multiple testing of all 47 genes simultaneously. In the Benjamini-Hochberg procedure the p-values are computed in the standard way by permutation, assuming that all distributions are exchangeable: the number of values in the permuted data with correlations over a threshold, divided by the number of compounds and by the number of permutations. In this analysis, the False Discovery Rate (q-value) at which each compound would be declared was calculated using the step-up procedure for positively correlated test statistics (again true because all correlations being compared are computed against the same ABC gene): in this procedure the first q-value for the largest correlation is the Bonferroni-corrected p-value for that gene; then further q-values are calculated as qj=max(pj*1429/j, qj-1). This procedure limits the expected proportion of false positives in the list 1, . . . , j to at most qj.
In the case of `CCc1nc(N)nc(N)c1-c1ccc(N(C)Cc2ccccc2)c([N+](=O)[O-])c1` [NSC382035], the “Pearson's Correlation Coeff” value is reported as 0.3180. For `CCc1nc(N)nc(N)c1-c1ccc(NCCc2ccccc2)c([N+](=O)[O-])c1` [NSC382049], the “Pearson's Correlation Coeff” value was 0.3279. In the case of `CCc1nc(N)nc(N)c1-c1ccc2c(c1)nnn2CCc1ccccc1` [NSC382053], the “Pearson's Correlation Coeff” value is reported as 0.3841. In the case of `CCc1nc(N)nc(N)c1-c1ccc2nn(-c3ccccc3)[n+]([O-])c2c1` [NSC382054], the “Pearson's Correlation Coeff” value is reported as 0.3151. With `COc1ccc(C2COc3cc(O)c(O)cc3C2)cc1` (stereo not drawn) [NSC600285] the “Pearson's Correlation Coeff” value was 0.2935. `Cc1ccc(C2COc3cc(O)c(O)cc3C2)cc1` (stereo not drawn) [NSC600286] was tested, and the “Pearson's Correlation Coeff” value was 0.2177. For `CCc1nc(N)nc(N)c1-c1ccc([N+](=O)[O-])c(Cl)c1` [NSC602313], the “Pearson's Correlation Coeff” value was 0.3012. With `O=S1(=O)CCC2=CC(C(F)(F)F)=CC(C(F)(F)F)=CN21` [NSC605440] the “Pearson's Correlation Coeff” value was 0.2658. For `CS(C)=O.[Cl][Pt][Cl].c1ccc2ncccc2c1` [NSC632790], the “Pearson's Correlation Coeff” value was 0.2677. For `Nc1nc(N)c2nc(CNc3ccc(C(=O)N[C@@H](CCCNC(=O)c4ccccc4C(=O)O)C(=O)O)cc3)cnc2n1` [NSC633713], the “Pearson's Correlation Coeff” value was 0.2908. In the case of `COc1ccc(C(=O)c2cc(OC)c(OC)c(OC)c2)cc1` [NSC638498], the “Pearson's Correlation Coeff” value is reported as 0.2464. In the case of `COc1cc([C@@H]2c3[nH]c4ccccc4c3C[C@H]3COC(=O)N32)cc(OC)c1O` [NSC640737], the “Pearson's Correlation Coeff” value is reported as 0.2176. `COc1ccc(-c2oc3cc(O)c(OC)c(O)c3c(=O)c2O)cc1` [NSC641548] was tested, and the “Pearson's Correlation Coeff” value was 0.2632. For `CN(C)CCNc1ccc2nnn3c4ccc(Cl)cc4c(=O)c1c23` [NSC645818], the “Pearson's Correlation Coeff” value was 0.3377. In the case of `CC1=C(N2CC2)C(=O)C(C)=C(N2CC2)C1=O` [NSC646714], the “Pearson's Correlation Coeff” value is reported as 0.3262. For `COc1cc(/C=C2\CCC/C(=C\c3ccc(O)c(OC)c3)C2=O)ccc1O` [NSC652893], the “Pearson's Correlation Coeff” value was 0.2821. In the case of `O=c1cc(-c2ccccc2F)[nH]c2cc3c(cc12)OCO3` [NSC656158], the “Pearson's Correlation Coeff” value is reported as 0.2218. For `O=c1cc(-c2cccc(OCc3ccccc3)c2)[nH]c2cc3c(cc12)OCO3` [NSC657279], the “Pearson's Correlation Coeff” value was 0.2253. In the case of `CCCOc1cc2c(cc1O)CC[C@@H]1[C@@H]2CC[C@]2(C)[C@@H](O)CC[C@@H]12` [NSC671041], the “Pearson's Correlation Coeff” value is reported as 0.2610. With `COc1ccc2cc(CNCCCCCCCCNCc3ccc4cc(OC)ccc4c3)ccc2c1` [NSC676427] the “Pearson's Correlation Coeff” value was 0.1843. For `CCOc1cc2c(cc1O)C(=O)C[C@@H]1[C@@H]2CC[C@]2(C)[C@@H](O)CC[C@@H]12` [NSC679431], the “Pearson's Correlation Coeff” value was 0.2672. With `C[C@]12CC[C@@H]3c4cc(OCC(F)(F)F)c(O)cc4/C(=N/O)C[C@H]3[C@@H]1CC[C@@H]2O` [NSC681683] the “Pearson's Correlation Coeff” value was 0.2079. With `N#Cc1c(N2CCN(c3ccc([N+](=O)[O-])cc3)CC2)[n+](=O)c2ccc(Cl)cc2n1[O-]` [NSC688493] the “Pearson's Correlation Coeff” value was 0.2012. In the case of `COc1ccc(O)c(/C=N/NC(=S)N2CCCCC2)c1` [NSC689529], the “Pearson's Correlation Coeff” value is reported as 0.3465. With `O=[N+]([O-])c1ccc(O)c(/C=N/NC(=S)N2CCCCC2)c1` [NSC689530] the “Pearson's Correlation Coeff” value was 0.3398. In the case of `Cc1cc(C)n(-c2nc3ccccc3c(=O)[nH]2)n1` [NSC691081], the “Pearson's Correlation Coeff” value is reported as 0.4305. In the case of `Cc1ccc2c(c1)-c1c(C#N)c(N)nc(-c3ccc(Cl)cc3)c1CCS2(=O)=O` [NSC691578], the “Pearson's Correlation Coeff” value is reported as 0.2102. For `O=C(NO)c1cccc(OCc2ccc(Br)cc2)c1` [NSC692756], the “Pearson's Correlation Coeff” value was 0.4093. For `O=[N+]([O-])C(=C\c1cccs1)/C(=C/c1cccs1)[N+](=O)[O-]` [NSC693131], the “Pearson's Correlation Coeff” value was 0.2788. With `S=C(N/N=C\C=N/NC(=S)N1CCCCC1)N1CCCCC1` [NSC693323] the “Pearson's Correlation Coeff” value was 0.3180. In the case of `c1ccc(/C(=N/Nc2ccccn2)c2cccnn2)cc1` [NSC693623], the “Pearson's Correlation Coeff” value is reported as 0.2952. In the case of `N#Cc1c(Nc2ccccc2)[n+]([O-])c2ccc(Cl)cc2[n+]1[O-]` [NSC693869], the “Pearson's Correlation Coeff” value is reported as 0.2805. In the case of `Cl.Oc1c(CN2CCCC2)ccc2cccnc12` [NSC693871], the “Correlation of antiproliferative activity with ABCB1 expression” value (“Correlation … with ABCB1 expression” for short) is reported as 0.6811 and the “Pearson's Correlation Coeff” value is reported as 0.6160. `C[n+]1c2ccccc2n2c3ccccc3c(NCCCn3ccnc3)c(C#N)c21.Cc1ccc(S(=O)(=O)[O-])cc1` [NSC694268] showed a Correlation of −0.5914. `C=C(C=O)c1c2c(nc3ccccc13)C(=O)c1ccccc1C2=O` [NSC694489] was tested, and the “Pearson's Correlation Coeff” value was 0.3742. In the case of `O=C1c2ccccc2C(=O)c2c1nc1ccccc1c2-c1cncc(-c2c3c(nc4ccccc24)C(=O)c2ccccc2C3=O)c1` [NSC694490], the “Pearson's Correlation Coeff” value is reported as 0.2438. With `COc1ccc2oc(S(=O)(=O)N3CC(CCl)c4ccc(N)cc43)cc2c1` (stereo not drawn) [NSC696124] the “Pearson's Correlation Coeff” value was 0.2104. In the case of `COc1ccc2oc(S(=O)(=O)N3CC(CCl)c4ccc([N+](=O)[O-])cc43)cc2c1` (stereo not drawn) [NSC696992], the “Pearson's Correlation Coeff” value is reported as 0.2171. `CC(C)=CCCC(C)c1c(O)c(O)c(C)c2nc3ccccc3nc12` (stereo not drawn) [NSC697120] was tested, and the “Correlation … with ABCB1 expression” value was 0.4435 and the “Pearson's Correlation Coeff” value was 0.4167. `CC(C)=CCC[C@@H](C)C1=C(O)C(=O)C(C)=C(N)C1=O` [NSC697125] was tested, and the “Correlation … with ABCB1 expression” value was 0.5358 and the “Pearson's Correlation Coeff” value was 0.5604. For `CNC1=C(C)C(=O)C(O)=C([C@H](C)CCC=C(C)C)C1=O` [NSC697128], the “Correlation … with ABCB1 expression” value was 0.4349 and the “Pearson's Correlation Coeff” value was 0.4568. `CC(C)=CCC[C@@H](C)C1=C(O)C(Nc2ccccc2)=C(C)C(=O)C1=O` [NSC697129] was tested, and the “Correlation … with ABCB1 expression” value was 0.4663 and the “Pearson's Correlation Coeff” value was 0.4854. For `CC(C)=CCC[C@@H](C)c1c2[nH]c3ccccc3sc-2c(C)c(=O)c1=O` [NSC697130], the “Correlation … with ABCB1 expression” value was 0.3925 and the “Pearson's Correlation Coeff” value was 0.4582. With `CC(C)=CCC[C@@H](C)C1=C(Nc2ccccc2F)C(=O)C(C)=C(O)C1=O` [NSC697131] the “Correlation … with ABCB1 expression” value was 0.3522 and the “Pearson's Correlation Coeff” value was 0.3514. With `CC(C)=CCC[C@@H](C)c1c2ncc[nH]c-2c(C)c(=O)c1O` [NSC697135] the “Correlation … with ABCB1 expression” value was 0.4249 and the “Pearson's Correlation Coeff” value was 0.4052. For `CC(C)=CCC[C@@H](C)C1=C(O)C(=O)C(C)=C(NC(C)c2ccccc2)C1=O` (stereo partly drawn) [NSC697137], the “Correlation … with ABCB1 expression” value was 0.4295 and the “Pearson's Correlation Coeff” value was 0.3828. In the case of `CC(C)=CCC[C@@H](C)C1=C(Nc2ccccc2Cl)C(O)=C(C)C(=O)C1=O` [NSC697138], the “Pearson's Correlation Coeff” value is reported as 0.3551. `Oc1ccc2ccccc2c1-c1nnc(CCCCCCCCc2nnc(-c3c(O)ccc4ccccc34)o2)o1` [NSC697189] was tested, and the “Pearson's Correlation Coeff” value was 0.2621. With `CC1(C)C2CC1C(C(O)C1c3cc(-c4ccccn4)ncc3C3CC1C3(C)C)c1cc(-c3ccccn3)ncc12` (stereo not drawn) [NSC697653] the “Pearson's Correlation Coeff” value was 0.1718. In the case of `CC(=O)O[C@H]1C#C/C=C\C#CC[C@@H]2C(=O)N(C(=O)OC(C)(C)C)[C@@H]12` [NSC697686], the “Pearson's Correlation Coeff” value is reported as 0.2297. For `CCNc1nnc(-c2ccccc2Nc2ccccc2-c2nnc(NCC)s2)s1` [NSC698459], the “Pearson's Correlation Coeff” value was 0.3095. `CN(C)c1nc(N(C)C)nc(N(C)C)n1` [NSC 13875] was tested, and the “Correlation … with ABCB1 expression” value was 0.4856. With `Oc1c(CN2CCN(c3ccccc3)CC2)cc(Br)c2cccnc12` [NSC 117028] the “Correlation … with ABCB1 expression” value was 0.3579. In the case of `C=C(C)[C@@H]1CCc2c(O)c(O)c(=O)cc(C)c2C1` [NSC 310618], the “Correlation … with ABCB1 expression” value is reported as 0.3698. `O=C(O)Cc1cccc2c(=O)cc(-c3ccccc3)oc12` [NSC 347512] was tested, and the “Correlation … with ABCB1 expression” value was 0.4109. `Br.CCN(CC)CC[n+]1ccc2c(C)c3[nH]c4ccccc4c3c(C)c2c1.[Br-]` [NSC 353076] was tested, and the Correlation was −0.7983. `COc1cc2c(c(O)c1O)-c1ccc(OC)c(=O)cc1C(NC(C)=O)CC2` (stereo not drawn) [NSC 354975] was tested, and the Correlation was −0.6043. In the case of `O=C(/C=C/c1ccc(Cl)cc1)c1ccccc(=O)c1O` [NSC 356777], the “Correlation … with ABCB1 expression” value is reported as 0.4021. `CCN(CC)CC[n+]1ccc2c(C)c3[nH]c4ccccc4c3c(C)c2c1` [NSC 359449] showed a Correlation of −0.7108. `Cc1ccc(S(=O)(=O)O)cc1.N/C(=N\N=C/c1cc(Br)cc(Br)c1O)NO` [NSC 371168] was tested, and the “Correlation … with ABCB1 expression” value was 0.3643.
